Patent US8282926B2, “CCR5-specific antibodies with HIV neutralizing activity that recognize a linear dodecapeptide that mimics a conformational epitope in the second extracellular loop of CCR5” (The United States of America, as Represented by the …, priority 2004, dated 2012)

Columns and labels:
mAb 2D7 [1] = test: Competition phage ELISA using synthetic peptides; format: binding, mouse; details: free peptide, FIG. 3B
mAb 2D7 [2] = test: Peptide ELISA: mAb 2D7 binding to biotinylated peptides captured on streptavidin; set-up: species or system mouse; details: for binding of mAb 2D7 to peptide in ELISA: biotinylated peptide captured by streptavidin
Procedure: The bound antibodies were quantified by HRP-conjugated goat anti-mouse IgG antibody. […] Microtiter wells, coated with mAb 2D7 at 200 ng/well, were incubated with serially diluted synthetic 2D7-2SK peptide or with a control peptide (CGRAARIGFPGAYTTKNG) (SEQ ID NO:3) for 30 min at room temperature, p2D7-2SK phages were then added to all wells (10^9 phages/well), followed by addition of HRP-conjugated anti-phage antibodies. […] MAb 2D7 (50 ng/100 μl/well) was added to plates coated with either unmodified biotin-2D7-2SK peptide or mutated biotin-2D7-2SK peptide derivatives (Table 1), all captured on streptavidin coated wells. The bound 2D7 antibodies were quantified by HRP-conjugated goat anti-mouse IgG antibody. The absorbance value (0.49) of mAb 2D7 binding to 2D7-2SK peptide (unmodified) is represented as 100% control binding.
A. Materials. […] Monoclonal antibody (mAb) 2D7 was purchased from BD Pharmingen (San Diego, Calif.). Immunoglobulin and HRP (horseradish peroxidase) conjugated secondary antibodies used for ELISA were obtained from Jackson Immuno Research Laboratories (West Grove, Pa.). Buffers and substrates for ELISA were purchased from KPL Biotech (Gaithersburg, Md.). New Zealand Rabbits were procured from Charles River (Wilmington, Mass.). B. Epitope mapping using phage display library. A random, linear, dodecapeptide-phage display library (Ph.D-12, New England Biolabs) was used for mAb 2D7 epitope mapping. Affinity selection of the phage clones from the random peptide library was carried out per the manufacturer's instructions with minor modifications. Microtiter wells were coated with 200 ng mAb 2D7 in 100 μl PBS, pH 7.4, at 4° C. for 12 h followed by 1 h at room temperature (RT). The wells were washed with PBS containing 0.05% Tween-20 (PBST) and blocked with EMEM containing 5% FBS at RT for 2 h. The phage library (1×10^10 phages/100 μl) was added to the blocked wells and incubated at RT for 1 h. Unbound phages were washed-off with ten washes of PBST followed by three washes with PBS. The bound phages were eluted at low pH by incubation with elution buffer (0.1 N Gly.HCl, pH 2.2 containing 1 mg/ml BSA) at 37° C. for 10 min. Eluent phages were neutralised with 6 μl of 2 M Tris (pH unadjusted) per 100 μl phage eluate. After four rounds of biopanning, the phage clones were analysed by DNA sequencing and affinity-capture phage ELISA. C. Phage ELISA. Phages used for ELISA were derived from clones selected after the fourth round of panning. Microtiter plates coated with 200 ng of mAb 2D7 were blocked with EMEM containing 5% FBS (blocking solution). The phages (10^10/100 μl/well) diluted in blocking solution were then added and incubated for 1 h at room temperature (RT). The plates were washed three times with PBST prior to addition of […] anti-phage antibody (GE Healthcare, Piscataway, N.J.), and the reaction was quantified using ABTS substrate. Absorbance was measured at 405 nm. D. Peptide ELISA. Peptides were biotinylated using maleimide PEO2-Biotin reagent as per manufacturer's instructions (Pierce Biotech, Rockford, Ill.). The biotinylated peptide ([…]) was captured onto wells coated with 200 ng of streptavidin. After blocking with EMEM containing 5% FBS, serial dilutions of mAb 2D7 in blocking solution were added to each well, incubated for 1 hr at RT, followed by addition of peroxidase-conjugated goat anti-mouse IgG. The reaction was quantified using ABTS substrate. Absorbance was measured at 405 nm. […]

[3] = system: PM1 (CD4+/CCR5+) cells and 12E1 cells expressing HIV-1 envelope; test: Fusion-inhibition (syncytium-formation) assay, PM1 cells with 12E1 cells expressing HIV-1 envelope; format: cell-based, human
2D7-2SK peptide = test: Peptide ELISA: antibody binding to biotinylated 2D7-2SK peptide; details: ELISA / binding assay
Procedure: IgG antibodies from rabbit immunized subcutaneously with KLH-conjugated 2D7-2SK peptide were used in peptide and Cell ELISA. […] Specific antibody binding was measured by HRP-conjugated goat anti-rabbit IgG antibody.
A. Materials. […] Monoclonal antibody (mAb) 2D7 was purchased from BD Pharmingen (San Diego, Calif.). Immunoglobulin and HRP (horseradish peroxidase) conjugated secondary antibodies used for ELISA were obtained from Jackson Immuno Research Laboratories (West Grove, Pa.). Buffers and substrates for ELISA were purchased from KPL Biotech (Gaithersburg, Md.). New Zealand Rabbits were procured from Charles River (Wilmington, Mass.). B. Epitope mapping using phage display library. A random, linear, dodecapeptide-phage display library (Ph.D-12, New England Biolabs) was used for mAb 2D7 epitope mapping. Affinity selection of the phage clones from the random peptide library was carried out per the manufacturer's instructions with minor modifications. […] After four rounds of biopanning, the phage clones were analysed by DNA sequencing and affinity-capture phage ELISA. […] The plates were washed three times with PBST prior to addition of […] anti-phage antibody (GE Healthcare, Piscataway, N.J.), and the reaction was quantified using ABTS substrate. Absorbance was measured at 405 nm. […] The reaction was quantified using ABTS substrate. Absorbance was measured at 405 nm. […]

## E-W-Q-K-E-G-L-V-T-L-W-L-G-G-G-G-S-C (EWQKEGLVTLWLGGGGSC) [2D7-2SK]
mAb 2D7 [1]
  inhibition of binding of phage p2D7-2SK to mAb 2D7-coated plates: inhibited
mAb 2D7 [2]
  binding of mAb 2D7 to peptide in ELISA: concentration-dependent specific reactivity
mAb 2D7 [2]; mAb 2D7 50 ng/100 μl/well, represented as 100% control binding, FIG. 3C
  absorbance value of mAb 2D7 binding to peptide: 0.49
[3]; peptide alone
  inhibitory activity of peptide by itself in the fusion assay: did not demonstrate any inhibitory activity

## E-W-Q-R-E-G-L-V-T-L-W-L-G-G-G-G-S-C (EWQREGLVTLWLGGGGSC) [2D7-2SK-K4R]
mAb 2D7 [2]
  binding of mAb 2D7 to peptide in ELISA: completely lost binding

## F-C-A-L-D-G-D-F-G-W-L-A-P-A-C (FCALDGDFGWLAPAC) [MD23, reference compound]
mAb 2D7 [2]
  binding of mAb 2D7 to peptide in ELISA: did not bind

## Q-L-W-L-G-W-T-E-L-E-G-V-K-G-G-G-S-C (QLWLGWTELEGVKGGGSC) [2D7-2SK-SCR, reference compound]
mAb 2D7 [2]
  binding of mAb 2D7 to peptide in ELISA: not

B1: ScFv-SK-34: single chain human monoclonal antibody against peptide 2D7-2SK; VH SEQ ID NO:12, VL SEQ ID NO:14 (antibody, listed as Homo sapiens, V domains shown)
VH: EVQLLESGGGLVQPGGSLRLSCAASGFTFDDYGMSWVRQAPGKGLEWVSVISASGGSTYYADSVNGRFTISRDNSKNTLYLQMNSLRAEDTAVYYCARYLPGLWAMDVWGQGTLVTVSSGSA
VL: DIVLTQPPSASGTPGQRVTISCTGSRSNIGKNYVSWYQQLPGKAPKLLIYKNYQRPSGVPDRFSGSKSGTSASLAISGLRSEDEADYYCAAWDDSLSGWVFGGSTQLTVLA
2D7-2SK peptide
  binding to 2D7-2SK peptide: bind preferentially and with high affinity
[3]; R5 HIV-1 envelopes, human CCR5 expressing cells
  inhibition of HIV syncytia formation, in words: positive
